For one test, the system named is angiotensin II receptor. Description: Adrenal Glomerulosa Test System: I125-angiotensin II binding to adrenal membranes. The settings on record: percent inhibition of I125 angiotensin binding at 10^-5 M of antagonist; rat adrenal membranes; 0.1 nM I125-angiotensin II.
In test [1] the target is T1, angiotensin-induced vasoconstriction (rabbit aorta) (Oryctolagus cuniculus, UniProt P34976).
T1 construct: the thoracic aortas were removed and cleaned of excess fat and connective tissue; from tissue; host or cells: thoracic aorta rings of New Zealand white rabbits
T1 sequence (P34976 1-359): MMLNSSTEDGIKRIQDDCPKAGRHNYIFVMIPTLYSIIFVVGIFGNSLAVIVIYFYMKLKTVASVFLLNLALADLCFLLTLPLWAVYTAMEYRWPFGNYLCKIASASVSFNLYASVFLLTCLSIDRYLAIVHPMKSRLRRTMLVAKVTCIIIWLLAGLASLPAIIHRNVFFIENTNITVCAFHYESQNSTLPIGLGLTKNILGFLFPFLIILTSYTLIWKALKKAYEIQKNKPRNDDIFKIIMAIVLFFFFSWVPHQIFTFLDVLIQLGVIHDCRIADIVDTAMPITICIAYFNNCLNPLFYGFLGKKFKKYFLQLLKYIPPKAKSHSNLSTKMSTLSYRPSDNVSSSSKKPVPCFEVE
Kind of test: Rabbit Aorta Test System: antagonism of angiotensin II-induced contraction of aortic rings. Format: cell-based, New Zealand white rabbits.
Procedure: The ability to antagonize angiotensin-induced vasoconstriction was evaluated in the rabbit aorta test system.
New Zealand white rabbits (Hazelton, 2-3 kg) were sacrificed by cervical dislocation and the thoracic aortas were removed and cleaned of excess fat and connective tissue. Rings of tissue (3 mm wide) were mounted in 10 ml tissue baths between 2 L-shaped stainless steel hooks. The lower hook was attached to a stationary rod and the upper hook to a force displacement transducer (Grass model FT.03). The bath chambers were maintained at 37° C., aerated with 95% O2 /5% CO2, and contained physiological solution of the following composition (mM): NaCl, 117; glucose, 5.6; NaH2 PO4, 1.0; MgSO4, 0.7; KCl, 5.2; CaCl2, 1.8; NaHCO3, 26; and phentolamine HCl, 0.003.
Rings were equilibrated for 1 hour with 2 g of tension. During the equilibration period, the tissues were washed by overflow every 15 minutes. Rings were then exposed to 10^-8 M angiotensin II (AII) and were allowed to contract until a steady state was reached. Tissues were then washed every 15 minutes for 1 hour. This was repeated every hour until the AII response stabilized. A cumulative concentration-response curve to AII (10^-10 to 10^-7 M) was then obtained. At the conclusion of the concentration-response curve, tissues were washed every 2 minutes until baseline tension was reached, then every 15 minutes for 30 minutes. Compounds were added in a volume of 10 μl DMSO and allowed to incubate for 30 minutes before repeating the concentration-response curve to AII. Contractions to AII were expressed as a percent of the maximum contraction obtained in the control curve (the first AII concentration-response curve). EC50 's (concentration that contracted the tissues to 1/2 the control maximum) for each curve were calculated using a 4 parameter logistics model (NonLin, SAS institute).

[2] abbreviates: pA2 = -log KB, KB = [molar concentration of antagonist]/[(EC50 AII with antagonist/EC50 AII without antagonist)-1], 30 min incubation, AII 10^-10 to 10^-7 M, read-out: Rabbit Aorta (pA2) (converted).

Like-named read-outs stand apart in the source and are kept apart here.

Procedure for angiotensin II receptor: The ability for compounds of Formula I to block angiotensin II receptor binding was determined using the adrenal glomerulosa assay.
Binding of I^125 -angiotensin II to adrenal membranes was routinely carried out in 96-well filtration plates. Adrenal membranes were prepared from the capsular portion (glomerulosal layer attached) of rat adrenal glands by differential centrifugation. Briefly, capsules were homogenized in a solution containing sucrose, 250 mM; MgCl2, 1 mM; and tris, 5 mM at pH 7.5 and 4° C. using a polytron at setting 5 for 20 seconds. The homogenate was stirred, gently, for 15 minutes at 4° C. and then centrifuged 10 minutes, at 1000×g, 4° C. The supernatant was centrifuged 30 minutes, at 30,000 ×g, 4° C. and the resulting pellet resuspended in 50 mM tris. Membrane preparations were stored in aliquots at -70° C. until used. Binding of I^125 -angiotensin II to adrenal membranes was performed at room temperature for 90 minutes in 96-well plates containing a hydrophilic polyvinylidene fluoride membrane (0.45 μm, millipore-GV multiscreen). Each 250 μl incubate contained the following (final concentration): tris, 50 mM; NaCl, 120 mM; MgCl2, 5 mM; dithiothrietol 1 mM; bovine serum albumin, 0.05%; I^125 -angiotensin II, 0.1 nM; and adrenal membrane protein, 8-15 μg. Antagonists were added in concentrations from 10 nM to 100 μM. Non-specific binding was measured in the presence of 0.1 μM Sar1, Ile8 angiotensin II. Binding was terminated by vacuum filtration. Receptor-ligand complex trapped on filters was washed 3 times with 300 μl ice-cold wash solution (tris, 50 mM; NaCl, 120 mM; MgCl2, 5 mM; dithiothrietol, 1 mM). Filter discs were dried, punched out and counted in a gamma counter at 52% efficiency. Specific binding represented 96% of total binding (approximately 150 fmol angiotensin II/mg protein). Data are expressed as the percent inhibition of I^125 angiotensin binding at 10^-5 M of antagonist.

As for `CCCCCCC(C(=O)O)c1ccc(NC(=O)C2(O)c3ccccc3-c3ccccc32)cc1` (stereo not drawn) [Example 46, α-Hexyl-4-[(9-hydroxy-9H-fluoren-9-ylcarbonyl)-amino]benzeneacetic acid], the “Adrenal Glomerulosa (% Inhibition of Binding)” value in the test on angiotensin II receptor was 39%. Moreover, in test [1], the Kb is 43.7 µM.
`CCCCCCC(C(=O)O)n1nnc(NC(=O)c2ccccc2C(=O)O)n1` (stereo not drawn) [Example 47, 5-[(2-Carboxybenzoyl)amino]-α-hexyl-2H-tetrazole-2-acetic acid]: the “Adrenal Glomerulosa (% Inhibition of Binding)” value in the test with angiotensin II receptor is 39%. The Kb in test [1] (setting [2]) was 5.01 µM.
For `CCCCCCC(c1nnn[nH]1)n1cnc(C(=O)NC(c2ccccc2)c2ccccc2)c1` (stereo not drawn) [Example 48, 1-[1-(Tetrazol-5-yl)heptyl]-N-(diphenylmethyl)-1H-imidazole-4-carboxamide], in that order: 61% and 12 µM.
On the same counts, the results for `CCCCCCC(c1cccc(C(=O)NC(c2ccccc2)c2ccccc2)c1)c1nnn[nH]1` (stereo not drawn) [Example 49, N-(Diphenylmethyl)-3-[1-(tetrazol-5-yl)-heptyl]benzamide] are 9% and 40.7 µM.
For the compound `CCCCCCC(c1nn[nH]n1)n1cnc(NC(=O)c2ccccc2C(=O)O)c1` (stereo not drawn) [Example 50, 2-[({1-[1-(Tetrazol-5-yl)heptyl]-1H-imidazol-4-yl}amino)carbonyl]benzoic acid hemihydrate], the “Adrenal Glomerulosa (% Inhibition of Binding)” value in the test on angiotensin II receptor was 42%. Besides, the Kb in test [1] (setting [2]) was 0.851 µM.
On the same counts, the results for `CCCCCCC(C(=O)O)n1cnc(NC(=O)C(c2ccccc2)c2ccccc2)c1.Cl` (stereo not drawn) [Example 51, α-Hexyl-4-[(diphenylacetyl)amino]-1H-imidazole-1-acetic acid hydrochloride] are 80% and 2.69 µM.
For `CCCCCCC(C(=O)O)n1cnc(C(=O)NC(c2ccccc2)c2ccccc2)n1.Cl` (stereo not drawn) [Example 52, α-Hexyl-3-{[(diphenylmethyl)amino]carbonyl}-1H-1,2,4-triazole-1-acetic acid hydrochloride], in that order: 44% and 8.32 µM.
For `CCCCCCC(C(=O)O)n1ccc(C(=O)NC(c2ccccc2)c2ccccc2)c1` (stereo not drawn) [Example 53, 3-{[(Diphenylmethyl)amino]carbonyl}-α-hexyl-1H-pyrrole-1-acetic acid], in that order: 42% and 6.03 µM.
Regarding `CCCCCCC(C(=O)O)n1cc(C(=O)NC(c2ccccc2)c2ccccc2)cn1` (stereo not drawn) [Example 54, 4-{[(Diphenylmethyl)amino]carbonyl}-α-hexyl-1H-pyrazole-1-acetic acid], in the test with angiotensin II receptor, the “Adrenal Glomerulosa (% Inhibition of Binding)” value was 40%. Further, the Kb in test [1] (setting [2]) is 13.8 µM.
For `CCCCCC(C(=O)O)c1ccc(Oc2ccccc2C(=O)O)cc1` (stereo not drawn) [Example 55, α-Pentyl-4-(2-carboxyphenoxy)phenylacetic acid], in that order: 13% and 1.26 µM.
On the same counts, the results for `CCCCCCC(C(=O)O)c1ccc(C(=O)c2ccccc2C(=O)O)cc1` (stereo not drawn) [Example 56, α-Hexyl-4-(2-carboxybenzoyl)benzeneacetic acid] are 75% and 1.05 µM.
In the case of `CCCCCCC(C(=O)O)n1cnc(C(=O)NC2CCc3ccccc32)c1.Cl` (stereo not drawn) [Example 57, 4-{[(2,3-Dihydro-1H-inden-1-yl)amino]-carbonyl}-α-hexyl-1H-imidazole-1-acetic acid hydrochloride], the “Adrenal Glomerulosa (% Inhibition of Binding)” value in the test on angiotensin II receptor came to 77%. In addition, the Kb in test [1] (setting [2]) is 2.63 µM.
For `CCCCCCC(C(=O)O)n1cnc(C(=O)NC(c2ccccc2)c2ccccc2)c1.Cl` (stereo not drawn) [Example 58, 4-{[(Diphenylmethyl)amino]carbonyl}-α-hexyl-1H-imidazole-1-aceticacid hydrochloride], in that order: 69% and 4.27 µM.
`CCCCCCC(C(=O)O)n1cnc(NC(=O)C2(O)c3ccccc3-c3ccccc32)c1` (stereo not drawn) [Example 59, α-Hexyl-4-[(9-hydroxy-9H-fluoren-9-ylcarbonyl)-amino]-1H-imidazole-1-acetic acid]: the “Adrenal Glomerulosa (% Inhibition of Binding)” value in the test on angiotensin II receptor is given as 67%. Besides, the Kb in test [1] was 3.09 µM.
As to `CCCCCC(CO)n1cnc(NC(=O)c2ccccc2C(=O)O)c1` (stereo not drawn) [Example 60, 2-[({1-[1-(Hydroxymethyl)hexyl]-1H-imidazol-4-yl}amino)carbonyl]benzoic acid], the “Adrenal Glomerulosa (% Inhibition of Binding)” value in the test on angiotensin II receptor is reported as 15%. For the same compound, the Kb in test [1] (setting [2]) was 8.32 µM.
For `CCCCCCC(C(=O)O)n1cnc(NC(=O)c2ccccc2O)c1` (stereo not drawn) [Example 76, α-Hexyl-4-[(2-hydroxybenzoyl)amino]-1H-imidazole-1-acetic acid], in that order: 35% and 1.26 µM.
As to `CCCCCCC(C(=O)O)n1cnc(NC(=O)c2c(O)ccc3ccccc23)c1` (stereo not drawn) [Example 77, α-Hexyl-4-{[(2-hydroxy-1-naphthalenyl)-carbonyl]amino}imidazole-1-acetic acid], the “Adrenal Glomerulosa (% Inhibition of Binding)” value with angiotensin II receptor stood at 36%. Moreover, the Kb in test [1] (setting [2]) is 5.5 µM.
On the same counts, the results for `CCCCCCC(C(=O)O)n1cnc(NC(=O)c2cccc(O)c2)c1` (stereo not drawn) [Example 78, α-Hexyl-4-[(3-hydroxybenzoyl)amino]-1H-imidazole-1-acetic acid hemihydrate] are 21% and 7.94 µM.
For `CCCCCCC(C(=O)O)n1cnc(NC(=O)c2ccc(O)c(O)c2)c1` (stereo not drawn) [Example 79, α-Hexyl-4-[(3,4-dihydroxybenzoyl)amino]-1H-imidazole-1-acetic acid (1.75 hydrate)], in that order: 18% and 11 µM.
For `CCCCCCC(C(=O)O)n1cnc(C(=O)Nc2ccccc2CO)c1.Cl` (stereo not drawn) [Example 83, α-Hexyl-4-({[2-(hydroxymethyl)phenyl]-amino}carbonyl)-1H-imidazole-1-acetic acid hydrochloride], the “Adrenal Glomerulosa (% Inhibition of Binding)” value in the test on angiotensin II receptor is 53%. The Kb in test [1] (setting [2]) is 3.89 µM.
On the same counts, the results for `CCCCCCC(C(=O)O)n1cnc(C(=O)Nc2ccccc2CCCCO)c1.Cl` (stereo not drawn) [Example 84, α-Hexyl-4-({[2-(4-hydroxybutyl)phenyl]-amino}carbonyl)-1H-imidazole-1-acetic acid hydrochloride] are 77% and 2.29 µM.
In the case of `CCCCCCC(C(=O)O)n1cnc(C(=O)Nc2cccc(CO)c2)c1.Cl` (stereo not drawn) [Example 85, α-Hexyl-4-({[3-(hydroxymethyl)phenyl]-amino}carbonyl)-1H-imidazole-1-acetic acid hydrochloride], in the test on angiotensin II receptor, the “Adrenal Glomerulosa (% Inhibition of Binding)” value was 0%. Moreover, the Kb in test [1] (setting [2]) is 15.8 µM.
On the same counts, the results for `CCCCCCC(C(=O)O)n1cnc(C(=O)Nc2ccccc2CCO)c1.Cl` (stereo not drawn) [Example 86, α-Hexyl-4-({[2-(2-hydroxyethyl)phenyl]-amino}carbonyl)-1H-imidazole-1-acetic acid hydrochloride] are 57% and 3.24 µM.
On the same counts, the results for `CCCCCCC(C(=O)O)n1cnc(C(=O)Nc2ccc(CCO)cc2)c1.Cl` (stereo not drawn) [Example 87, α-Hexyl-4-({[4-(2-hydroxyethyl)phenyl]-amino}carbonyl)-1H-imidazole-1-acetic acid hydrochloride] are 7% and 23.4 µM.
Take `CCCCC(C(=O)O)n1cnc(C(=O)Nc2ccccc2O)c1.Cl` (stereo not drawn) [Example 89, α-Butyl-4-{[(2-hydroxyphenyl)amino]-carbonyl}-1H-imidazole-1-acetic acid hydrochloride]: the “Adrenal Glomerulosa (% Inhibition of Binding)” value in the test with angiotensin II receptor was 54%. Besides, the Kb in test [1] (setting [2]) is 38.9 µM.
As to `CCCCCCC(C(=O)O)c1ccc(Cc2ccccc2C(=O)O)cc1` (stereo not drawn) [Example 94, 4-[(2-Carboxyphenyl)methyl]-α-hexyl-benzeneacetic acid], the “Adrenal Glomerulosa (% Inhibition of Binding)” value with angiotensin II receptor came out at 58%. Also, the Kb in test [1] (setting [2]) is 1.66 µM.
With `CCCCCCC(C(=O)O)n1cnc(NC(=O)c2cccc(N)c2C(=O)O)c1` (stereo not drawn) [Example 96, α-Hexyl-4-[(3-amino-2-carboxybenzoyl)amino]-1H-imidazole-1-aceticacid], the “Adrenal Glomerulosa (% Inhibition of Binding)” value with angiotensin II receptor worked out at 59%. For the same compound, the Kb in test [1] (setting [2]) was 0.372 µM.

The values above are taken from patent US5073566A, “Angiotensin II antagonist 1,3-imidazoles and use thereas” (Eli Lilly and Company, priority 1989, dated 1991).
